Data taken from patent publication US20220339257A1, “METHODS TO INCREASE THE SENSITIVITY AND REVERSING THE RESISTANCE TO DRUGS” (Biomarker Strategies, LLC, priority 2019, published 2022).

Key:
Assay type in all cases: cell-based
H1581 (EGFR WT) = assay: MTT cell survival assay; conditions: EM2 (10, 30, 50 ng/ml) combined with Erlotinib 7 μM; Erl-resistant EGFR WT cells
Description: (§1) Cells (10^4 cells/well) were grown in 96-well plates and exposed for 72 hours to different doses of erlotinib, alone or in combination with EM2. The percentage of cell survival was determined using the 3-(4, 5-dimethylthiazol-2-yl)-2, 5-diphenyltetrazolium bromide (MTT). Single drug alone and vehicle were kept as controls.

[1] = system: H1975 (EGFR-double mutant line); assay: MTT cell survival assay; conditions: EM2 10 ng/ml combined with erlotinib; Erl-resistant H1975; 72 hours
Description: as §1

[2] = system: HCC827 (EGFR deletion mutant line); assay: MTT cell survival assay; conditions: 10 ng/ml of EM2 combined with erlotinib, 72 hours
Description: as §1

[3] = system: clinical sample; HS2170 and Calu-6 cells; assay: HoPI assay (Hoechst 33342 and propidium iodide); conditions: Osimertinib in combination with EM2
From the text: A double stain of Hoechst 33342 and propidium iodide allows for the determination of cell viability with high specificity and low background noise, as compared to trypan blue staining. Hoechst 33342 is a cell permeable blue fluorescent nuclear stain which will stain all cell types. Propidium iodide is a cell impermeable red fluorescent nuclear stain that will only bind to the nuclei of cells with compromised membranes (dead cells). The staining can be performed rapidly on live cell suspensions within 15 minutes. 25 uL of 4× Hoechst 33342 Solution (40 ug/mL) and 25 uL of 4×Propidium Iodide Solution are added to 50 uL of cell suspension. The suspension was gently mixed 10 times and 50 uL was immediately transferred to a microfluidic cell counting chip. A 365 nm LED was used to excite both Hoechst 33342 and propidium iodide. Images of the cells were captured using a 10× objective lens on an Olympus microscope using a Canon EOS 6D camera using an ISO of 800 and an exposure of 2 seconds; both JPEG and RAW images were saved for analysis. The blue channel was used to measure the total number of cells and the red channel was used to measure the number of dead cells. Cell counting was performed automatically by the Image Pro software (Media Cybernetics, Inc).

BICR-16 cells = assay: Western blot of protein biomarkers; conditions: IFN-γ (100 ng/mL)+TNF-α (10 ng/mL), 24 hours
Description: (§2) MTA and EM effects on protein biomarker expression were measured by western blotting. For the assay cell lines (Ca9-22, PE/CA-PJ15, HTB-38, HPAF-II, CAL27, BICR-16, A-253, Calu-6, PC-9, H1838, RPMI-7951 and A7) were cultured and treated with doses of MTAs alone, EMs alone and in combination and then lysed for protein analysis. This method can readily be conducted under adherent or suspension conditions, manually or on automated instruments, such as SnapPath. A total of 0.3×10^6 cells per well were seeded in 6 well plates with 10% FBS-containing media and incubated for 24 hours. Cells were then treated with MTA and/or EM concentrations for 24 hours. For total protein extraction, briefly, each sample media was collected, and wells were washed with HMS, and the wash was combined with its respective media collection. Cells were then detached using Accutase solution and again collected in its respective sample media and another HMS well wash and collection was performed. All cell solutions were centrifuged, washed with ice-cold PBS, and centrifuged again. Cell pellets were lysed in 250 μL of ice-cold 1× lysis buffer with protease and phosphatase inhibitor cocktails and incubated for 10 minutes on ice. Lysates were clarified with a centrifugation (14,000 rpm) for 10 minutes at 4° C. Cell lysates were quantified using Bio-Rad DC Protein Assay (Bio-Rad Cat. #5000116).
(§3) For all western blots, an equal amount of protein (3-5 μg) was loaded into SDS-polyacrylamide gels (Mini-Protean TGX Precast Gel; Bio-Rad, e.g. 7.5%, Cat. #4561024; 10%, Cat. #4561035; 12%, Cat. #4561045; or 4-15%, Cat. #4561085). Proteins were separated at 215V for at least 30 minutes in 1× Tris/Glycine/SDS buffer (Bio-Rad Cat. #1610772) and transferred to PVDF membranes using a Trans-Blot Turbo (Bio-Rad Cat. #1704155) for 7 minutes in transfer buffer (Trans-Blot Turbo Transfer Kit, Bio-Rad Cat. #1704273). Blots were blocked at room temperature for 1 hour with 5% non-fat dry milk in tris-buffered saline with Tween 20 (TBST; 15 mM Tris-HCl, pH 7.5, 200mMNaCl and 0.1% Tween 20). Membranes were incubated with primary antibodies at 4° C. overnight and at room temperature for 1 hour the next day; all primary antibodies were diluted following manufacturer's specifications in TBST with either 5% BSA or 5% non-fat dry milk. Membranes were washed in TBST for 5 minutes, three times, and incubated with HRP-conjugated secondary antibodies diluted 1:5000 in TBST with 5% non-fat dry milk at room temperature for 1 hour (anti-rabbit IgG, Bio-Rad Cat. #1706515; or anti-mouse IgG, Bio-Rad Cat. #1706516). Membranes were then washed in TBST for 10 minutes, three times, and target proteins were identified using Clarity Western ECL Substrate (Bio-Rad Cat. #1705061) on autoradiography film (GenHunter Cat. #B581, Nashville, Tenn., USA). Other assay types, such as Luminex multiplexed immunoassays, ICC, IHC, flow cytometry, etc. can be used readily.

HTB-38 cells = assay: Western blot of protein biomarkers
Description: as §2, §3

PC-9 cells = assay: Western blot of protein biomarkers; conditions: trametinib (100 nM)+TNF-α (10 ng/mL), 24 hours
Description: as §2, §3

Ca9-22 cells = assay: Western blot of protein biomarkers; conditions: compared to either alone
Description: as §2, §3

PE/CA-PJ15 cells = assay: Western blot of protein biomarkers; conditions: osimertinib (100 nM)+IFN-α (200 ng/mL)
Description: as §2, §3

[4] = compared to either therapy alone
[5] = osimertinib (1000 nM)+IFN-α (200 ng/mL)

Molecule | cell survival (MTT), sensitization to erlotinib (H1581 (EGFR WT)) | cell survival (MTT), response to erlotinib [1] | cell survival (MTT), sensitivity to erlotinib [2] | cell death (HoPI assay) [3] | PARP cleavage (BICR-16 cells; compared to MTA and EM alone) | LC3II over LC3I expression (BICR-16 cells; compared to either alone) | Ki67 degradation and/or fragmentation pattern (BICR-16 cells; [4]) | LC3II expression (HTB-38 cells; IFN-γ (100 ng/mL)+TNF-α) | p62 expression (HTB-38 cells; IFN-γ (100 ng/mL)+TNF-α) | PARP cleavage (HTB-38 cells; IFN-γ (100 ng/mL)+TNF-α (10 ng/mL), 24 hours, compared to MTA and EM alone) | Ki67 degradation and/or fragmentation pattern (HTB-38 cells; IFN-γ (100 ng/mL)+TNF-α (10 ng/mL), 24 hours, compared to either therapy alone) | PARP cleavage (PC-9 cells; compared to MTA and EM alone) | p-AKT (Ser473) expression (PC-9 cells; compared to either MTA or EM alone) | Ki67 degradation and/or fragmentation pattern (PC-9 cells; [4]) | LC3II over LC3I expression (Ca9-22 cells; GSK-458 (10 nM)+IFN-α (200 ng/mL), 24 hours) | LC3II expression (Ca9-22 cells; [5]) | p62 expression (Ca9-22 cells; [5]) | p62 expression (PE/CA-PJ15 cells) | LC3II over LC3I expression (PE/CA-PJ15 cells; 24 hours, compared to either alone)
tumor necrosis factor-alpha [EM2] | sensitized to Erl | enhanced response | increased sensitivity to Erl | increase in cell death | very strong PARP cleavage | marked increase in LC3II over LC3I expression | marked increase in the distinct degradation and/or fragmentation pattern of Ki67 | increased expression | increased expression | very strong PARP cleavage | marked increase in the distinct degradation and/or fragmentation pattern of Ki67 | very strong PARP cleavage | strong reduction in p-AKT (Ser473) expression | marked increase in the distinct degradation and/or fragmentation pattern of Ki67 | – | – | – | – | –
interferon-alpha-1 (protein, UniProt P01562 24-189, looked up, enhancer molecule, cytokine purchased from Sigma) Interferon alpha-1/13: CDLPETHSLDNRRTLMLLAQMSRISPSSCLMDRHDFGFPQEEFDGNQFQKAPAISVLHELIQQIFNLFTTKDSSAAWDEDLLDKFCTELYQQLNDLEACVMQEERVGETPLMNADSILAVKKYFRRITLYLTEKKYSPCAWEVVRAEIMRSLSLSTNLQERLRRKE | – | – | – | – | – | – | – | – | – | – | – | – | – | – | marked increase in LC3II over LC3I expression | LC3II upregulation | reduction in p62 | increased expression | marked increase in LC3II over LC3I expression
